Measured values reported in patent US20100075969A1, “Angiogenesis” (UNIVERSITY OF LEICESTER, priority 2006, published 2010).

Legend:
[1] = system: MTLn3 cells; experiment: Galvanotaxis in applied electric field, MTLn3 mammary adenocarcinoma cells; type: cell-based
[2] = system: endothelial cells; experiment: In vitro model of angiogenesis: tubule formation on Matrigel; type: cell-based
Procedure: An experimental in vitro model was employed to observe the effect of β2-AR ligands (ie agonists and antagonists) on endothelial cell vessel formation. […] The endothelial cells plated on the top of the Matrigel were maintained in a 37° C. incubator with 5% CO2 Tubule formation was observed every 4 hours up to 21 hours using an inverted Nikon Diaphot microscope.

[3] = system: dermal microvascular endothelial cells; experiment: Galvanotaxis in applied electric field, dermal microvascular endothelial cells; type: cell-based, human; details: electric field 100 mV/mm
Procedure: (§1) Endothelial cells were seeded at low density in medium within electrostatic chambers for 2-3 hours prior to exposure to an electric field (EF). A roof consisting of a No 1 cover slip was applied and sealed on top of the chamber, as previously described (in Pullar et al (2005) J Cell Sci 118 (Pt 9), 2023-2034; Pullar et al (2006) Mol Biol Cell and Pullar et al (2001) Cell Motil Cytoskeleton 50 (4), 207-217). A direct current EF of 100 mV/mm was applied through agar bridges connecting silver/silver chloride electrodes to the culture medium at either side of the chamber. The chamber was placed on an inverted microscope with temperature controlled at 37° C.
(§2) Time-lapse images were recorded every 10 minutes over 1 hour and analyzed with Improvision software as previously described (Pullar et al (2005) J Cell Sci 118 (Pt 9), 2023-2034; Pullar et al (2006) Mol Biol Cell and Pullar et al (2001) Cell Motil Cytoskeleton 50 (4), 207-217). […] Therefore, the average of directedness values of a population of cells gives an objective quantification of how, directionally, cells have moved within the electric field. […] Migration rate was analyzed with the following two parameters, ie trajectory speed (μm/min) is the total length of the migration trajectory of a cell divided by the given period of time (ie 60 minutes).

[4] = system: aortic rings; experiment: Rat aortic ring assay (capillary outgrowth); type: cell-based; details: after 90 hours; 10 nM ICI 118,551 or 1 μM salbutamol; vs untreated
Procedure: A rat aortic ring assay (as described in Nicosia and Ottinetti (1990) Lab Invest 63 (1), 115-122; and Diglio et al (1989) Lab Invest 60 (4), 523-531) was used to study the effect of β2-AR ligands on vessel formation. Rat aorta was obtained from animals that were euthanised under a Home Office Approved Schedule 1 method. The aorta was cut into small rings with sterile scissors and each piece was submerged under a 50 μl bead of Matrigel in the bottom of each in a 24-well dish. […] Vessel growth was observed using an inverted Nikon Diaphot microscope every 30 hours and images were captured as described in Pullar et al (2005) J Cell Sci 118 (Pt 9), 2023-2034; Pullar et al (2006) Mol Biol Cell and Pullar et al (2001) Cell Motil Cytoskeleton 50 (4), 207-217.

[5] = system: B16-BL6 melanoma cells; experiment: β2-AR/melanoma in-vivo study (B16-BL6 in SKH1 mice); details: for tumour surface area / tumour average surface area: s.c. pump, ICI 118,551 0.75 mg/kg/day or salbutamol 3 mg/kg/day, 7 mice per group
Excerpt: Twenty one, 5 week-old female SKH1 mice (immunocompetent, hairless albino strain, Charles River, Wilmington, Mass.) weighing 18 g-25 g were divided into 3 groups of 7 mice.
Melanomas were imaged daily by both transillumination and surface photography at 2× magnification, using an upright Nikon microscope controlled by Pixera software (San Jose, Calif.). Mice were sacrificed after 11 days by CO2 asphyxiation, and the tumor, lungs and the liver were excised and fixed in 10% buffered formalin for 7 days.
All mice were sacrificed by CO2 asphyxiation, 11 days post melanoma cell injection. The tumours were excised from their sub-dermal location, fixed in saline-buffered 10% formalin for 10 days, and then weighed. The average weight of the tumours from each group was calculated and statistically analysed.

[6] = system: aortic macrovascular endothelial cells; experiment: Galvanotaxis in applied electric field, aortic macrovascular endothelial cells; type: cell-based, human; details: electric field 100 mV/mm
Procedure: as §1, §2

[7] = system: chick chorioallantoic membrane (CAM); experiment: Chick chorioallantoic membrane (CAM) assay; type: in vivo; details: day 8 chick embryos, 48 hours; 10 μM agonist, 10 μM forskolin or 10 nM ICI 118,551; control 15
Procedure: Fertilised chicken eggs were obtained within the first two days of embryonic development, and were cleaned and incubated at 37° C. for 24 hours. On day 3 of development, 1-2 ml of albumin was removed from the apex end of each egg with a sterile needle. A window of 1.5×1.5 cm was created in the shell with a Dremmel tool, and was sealed with clear adhesive tape. […] Images of the exposed vasculature were captured 48 hours later using a Nikon microscope/imaging system. Scale bar=1 mm. Bifurcation points were counted in four fields for the control/treatment groups.

[8] = system: dermal microvascular endothelial cells; experiment: Scratch (wound healing) assay, dermal microvascular endothelial cells; type: cell-based, human; details: 10 nM ICI 118,551 or 1 μM salbutamol
Procedure: Endothelial cells were grown to confluence in medium on plastic tissue culture dishes (Fisher Scientific, Pittsburgh, Pa.) coated with 60 μg/ml collagen I (Vitrogen 100, Collagen Corp., Palo Alto, Calif.) in PBS for 1 hour at 37° C. […] Demarcated areas of each wound were photographed on an inverted Nikon Diaphot microscope at the time of wounding (time 0) up to wound healing as described in Pullar et al., (2003) J Biol Chem 278 (25), 22555-22562. Image J was used to measure each demarcated wound area at time 0 and 20 hours post wounding and the results were averaged to calculate the % healing for control and β2-AR ligand-treated cells.

[9] = 1 μM salbutamol, control cosine=0.5

SMILES | effect on galvanotaxis [1] | time to highly organized, mature capillary network on Matrigel ([2]; 10 nM ICI 118,551, untreated cells: within 21 hours) [h] | increase in directional migration ([3]; 10 nM ICI 118,551) [%] | capillary outgrowth from cut edges of aortic rings [4] | average weight of tumours ([5]; 11 days post melanoma cell injection, vs control group) | number of mice without any signs of tumour development ([5]; after 3 days, of 7 mice, ICI 118,551 0.75 mg/kg/day) | tumour surface area ([5]; after 3 days) | number of mice with no visible signs of tumour development ([5]; after 7 days and by end of study (11 days), of 7 mice, ICI 118,551 0.75 mg/kg/day) | tumour average surface area ([5]; after 7 days) | size of excised tumours (photograph) ([5]; at eleven days, vs control) | increase in directional migration ([6]; 10 nM ICI 118,551) [%] | number of vessel bifurcation points [7] | increase in rate of wound closure [8] [%] | reduction of directional migration [1] | capillary network formed on Matrigel ([2]; by 21 hours, 1 μM salbutamol) | migration directedness (cosine) [3, 9] | surface area of the very large tumour of one mouse ([5]; after 7 days, single mouse, salbutamol 3 mg/kg/day) [mm^2] | migration directedness (cosine) [6, 9]
Cc1ccc(OCC(O)C(C)NC(C)C)c2c1CCC2 (stereo not drawn) [ICI 118,551] | little effect on galvanotaxis | ≤ 12 | ≤ 60 | decreased the length of the capillaries | statistically lower than that for the control group | two | 1.8+/−0.61 mm^2 | one | 4.4+/−1.5 mm^2 | much smaller than those in the control sample | ≤ 60 | > 50 | 40 | – | – | – | – | –
C=C[C@@]1(C)CC(=O)[C@]2(O)[C@@]3(C)[C@@H](O)CCC(C)(C)[C@@H]3[C@H](O)[C@H](OC(C)=O)[C@@]2(C)O1 [forskolin] | – | – | – | – | – | – | – | – | – | – | – | 5 | – | – | – | – | – | –
CC(C)(C)NCC(O)c1ccc(O)c(CO)c1 (stereo not drawn) [salbutamol] | – | – | – | significantly increased the length and number of the capillaries | – | – | 4.1+/−1.3 mm^2 | – | 10.4+/−2.9 mm^2 | – | – | 4 | 40 | more than 50% | disorganized, immature capillary network | 0 | 24.8 | 0
